From ChEMBL document CHEMBL1201862, “PubChem BioAssay data set” (2004) come the findings set out here.

Test systems include M14; NCI-H522; 786-0; SF-539; UACC-257; HL-60; SK-MEL-2; CCRF-CEM; MDA-MB-231; SK-MEL-5; MDA-MB-435; SF-295; OVCAR-3; RPMI-8226; HOP-62; HCT-15; Malme-3M; LOX IMVI; IGROV-1; MCF7.
Common to all, as to assay: DTP human tumour cell line panel, 48 h

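Method: 48-hour compound exposure of cells in 96-well plates, five concentrations, linear interpolation of endpoints. The concentration for 50% growth inhibition is given as GI50.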 The source made the active and inactive calls. Cut-off read from the data, not from the text of the source: active = GI50 up to about 1.1 µM and inactive = higher.

By GI50 is commonly meant the concentration at which growth is held to half of that of the control. For `CSc1nc(-c2cc3c(c(SC)n2)CCC3)cc2c1CCC2`, the GI50 in the experiment with M14, in the experiment with NCI-H522, with 786-0, in the experiment with SF-539, with UACC-257 and in the experiment on HL-60 was > 100 µM (inactive) throughout. For the same molecule, the GI50 in the experiment on SK-MEL-2, in the experiment on CCRF-CEM, in the experiment with MDA-MB-231, in the experiment with SK-MEL-5, in the experiment with MDA-MB-435 and in the experiment on SF-295 was > 100 µM (inactive) each time. Further, the GI50 in the experiment on OVCAR-3 is > 100 µM (inactive); in the experiment on RPMI-8226 it was > 100 µM (inactive); in the experiment on HOP-62, > 100 µM (inactive); in the experiment on HCT-15 it was over 100 µM.

In the case of `O=C(c1ccccc1)C1C(C(=O)c2ccccc2)N1Cc1ccccc1` (stereo not drawn), the GI50 with M14 was 28.6 µM (inactive); in the experiment on NCI-H522 it was 24.5 µM (inactive); in the experiment on 786-0, 34.8 µM (inactive); with UACC-257, 38.6 µM (inactive); in the experiment with SK-MEL-2, 17.5 µM (inactive); in the experiment with CCRF-CEM it was 36.6 µM (inactive). Moreover, the GI50 with MDA-MB-231 is 26.1 µM (inactive); in the experiment on Malme-3M, 34.4 µM (inactive); in the experiment with SK-MEL-5 it was 20 µM (inactive); in the experiment with MDA-MB-435, 21.8 µM (inactive); with LOX IMVI, 31.2 µM (inactive); with SF-295 it was 39.7 µM (inactive). The GI50 was 27.8 µM (inactive) in the experiment with OVCAR-3; 49.8 µM (inactive) with IGROV-1; 48.9 µM (inactive) in the experiment on RPMI-8226; 30.5 µM (inactive) with HOP-62; 57.3 µM with HCT-15.

With `CC(=O)N1N=C(c2c(O)ccc3ccccc23)CC1C(=O)c1ccco1` (stereo not drawn), the GI50 is 22.4 µM (inactive) with M14; 28.2 µM (inactive) with NCI-H522; 30.8 µM (inactive) in the experiment with 786-0; 21.1 µM (inactive) in the experiment with SF-539; 31.6 µM (inactive) with UACC-257; 16.6 µM (inactive) in the experiment with SK-MEL-2. Further, the GI50 in the experiment with CCRF-CEM was 14.9 µM (inactive); in the experiment on MDA-MB-231, 18.4 µM (inactive); in the experiment on Malme-3M, 30.5 µM (inactive); with MCF7 it was 14.5 µM (inactive); in the experiment on SK-MEL-5, 22.8 µM (inactive); with MDA-MB-435, 28.5 µM (inactive). Besides, the GI50 in the experiment on SF-295 was 35.2 µM (inactive); in the experiment on OVCAR-3, 17.7 µM (inactive); in the experiment on IGROV-1 it was 27.1 µM (inactive); in the experiment with RPMI-8226 it was 14 µM (inactive); with HOP-62 it was 29.8 µM (inactive); in the experiment on HCT-15, 37.9 µM.

As to `COc1ccc(C(=O)/C=C/c2ccc(OCC#N)cc2)cc1`, the GI50 was 20 µM (inactive) in the experiment on M14; 18.1 µM (inactive) in the experiment on NCI-H522; 42.2 µM (inactive) in the experiment on 786-0; 20.4 µM (inactive) in the experiment on SF-539; 38.9 µM (inactive) with UACC-257; 23.2 µM (inactive) in the experiment on CCRF-CEM. The GI50 in the experiment with MDA-MB-231 was 23.4 µM (inactive); in the experiment with Malme-3M it was 20.5 µM (inactive); with MCF7, 15.8 µM (inactive); in the experiment on SK-MEL-5, 15.1 µM (inactive); with MDA-MB-435, 24.7 µM (inactive); in the experiment with SF-295, 41 µM (inactive). Further, the GI50 with OVCAR-3 was 30.8 µM (inactive); in the experiment on IGROV-1, > 10 µM (inactive); in the experiment on HOP-62 it was 53.1 µM (inactive); in the experiment on HCT-15, 23.3 µM.

As for `c1ccc(C2SCc3nc4cc5ccccc5cc4n32)cc1` (stereo not drawn), the GI50 with M14 is > 100 µM (inactive); in the experiment on 786-0 it was 60.4 µM (inactive); in the experiment with SF-539 it was > 100 µM (inactive); with UACC-257, > 100 µM (inactive); in the experiment on SK-MEL-2, > 100 µM (inactive); in the experiment on CCRF-CEM, > 100 µM (inactive). The GI50 with MDA-MB-231 was > 100 µM (inactive); in the experiment on Malme-3M, > 100 µM (inactive); with MCF7 it was > 100 µM (inactive); with MDA-MB-435, > 100 µM (inactive); in the experiment on LOX IMVI, > 100 µM (inactive); in the experiment on SF-295, 85.5 µM (inactive). Also, the GI50 in the experiment with OVCAR-3 is > 100 µM (inactive); in the experiment with IGROV-1, > 100 µM (inactive); with RPMI-8226, > 100 µM (inactive); with HOP-62 it was > 100 µM (inactive); in the experiment on HCT-15 it was over 100 µM.

In the case of `CCOP(=O)(OCC)OC1CC(n2cnc3c(N(CC)CC)ncnc32)OC1CO[Si](C)(C)C(C)(C)C` (stereo not drawn), the GI50 with M14 is 18.8 µM (inactive); in the experiment on NCI-H522, 14.3 µM (inactive); in the experiment with 786-0, 16.1 µM (inactive); in the experiment on SF-539 it was 19.1 µM (inactive); in the experiment on UACC-257, 16.5 µM (inactive); in the experiment with HL-60, 65 µM (inactive). For the same molecule, the GI50 in the experiment on SK-MEL-2 is 21.7 µM (inactive); in the experiment with CCRF-CEM it was 14.4 µM (inactive); in the experiment on Malme-3M it was 22.4 µM (inactive); in the experiment on MCF7, 21.8 µM (inactive); with SK-MEL-5, 17.3 µM (inactive); in the experiment on MDA-MB-435, 17.3 µM (inactive). Moreover, the GI50 was 16.2 µM (inactive) in the experiment with LOX IMVI; 16.7 µM (inactive) in the experiment with SF-295; 20.3 µM (inactive) in the experiment on OVCAR-3; 16.9 µM (inactive) in the experiment with IGROV-1; 28 µM (inactive) in the experiment on RPMI-8226; 19.7 µM (inactive) in the experiment with HOP-62. Further, the concentration for 50% growth inhibition (GI50) in the experiment with HCT-15 was 21.4 µM.

For `O=S1(=O)c2cnccc2N=C(NCc2ccccc2)N1c1ccccc1`, the GI50 in the experiment on M14 was > 100 µM (inactive); with NCI-H522, 42.1 µM (inactive); in the experiment with 786-0, > 100 µM (inactive); with SF-539, > 100 µM (inactive); in the experiment with UACC-257, > 100 µM (inactive); in the experiment on HL-60, 41.4 µM (inactive). Moreover, the GI50 in the experiment on SK-MEL-2 is 83.2 µM (inactive); with CCRF-CEM, 41 µM (inactive); with Malme-3M, > 100 µM (inactive); in the experiment on MCF7, 54.5 µM (inactive); with SK-MEL-5, 55.5 µM (inactive); in the experiment on MDA-MB-435, 92.3 µM (inactive). Further, the GI50 in the experiment on LOX IMVI is > 100 µM (inactive); in the experiment with SF-295 it was 89.1 µM (inactive); in the experiment with OVCAR-3 it was 45.7 µM (inactive); in the experiment with IGROV-1, 55.1 µM (inactive); with RPMI-8226, 20.6 µM (inactive); with HOP-62 it was > 100 µM (inactive). In the experiment with HCT-15, growth was halved (GI50) at 74.5 µM.

`O=C(O)c1ccc(-c2nc3cc(Cl)ccc3[nH]2)cc1`: the GI50 in the experiment with M14, with NCI-H522, in the experiment with 786-0, in the experiment on SF-539, with HL-60 and in the experiment on SK-MEL-2 was > 100 µM (inactive) each time. Also, the GI50 in the experiment on CCRF-CEM, with MDA-MB-231, with MCF7, in the experiment on SK-MEL-5, in the experiment on SF-295 and in the experiment with OVCAR-3 was > 100 µM (inactive) throughout. Also, the GI50 in the experiment with IGROV-1 is > 100 µM (inactive); in the experiment on RPMI-8226 it was > 100 µM (inactive); with HOP-62 it was > 100 µM (inactive); in the experiment with HCT-15, over 100 µM.
